The source of these data is patent US20220119456A1, “ANTI-SARS-COV-2 FUSION PEPTIDES” (KING FAISAL UNIVERSITY, priority 2020, published 2022).

Where two headings read alike, the source gives them in different places. Where a SMILES comes first, the peptide text is derived from it.

The subject of test [1] is SARS-CoV-2 S pseudotyped VSV viral particles.
Test [2] shares this test system. This is another data set of the same source.
A further test relates to SARS-CoV-2. The conditions noted are these: for reduction in SARS-CoV-2 plaques formation: 10 μM peptide, Vero E6 cells.
Test [3] relates to SARS-CoV-2 Spike-mediated cell-cell fusion.
For test [4], the system named is SARS-CoV-2 S pseudotyped VSV viral particles. The source holds these as a separate data set.
[5] abbreviates: S pseudotyped VSV viral particles.

By IC50 is commonly meant the concentration that inhibits the measured activity by half. Higher therefore signals weaker potency in that assay. `CC[C@H](C)[C@H](NC(=O)CNC(=O)[C@H](CO)NC(=O)[C@@H](NC(=O)[C@H](CC(=O)O)NC(=O)CNC(=O)[C@H](CC(C)C)NC(=O)[C@@H](NC(=O)[C@@H](N)Cc1c[nH]cn1)C(C)C)[C@@H](C)CC)C(=O)N[C@@H](CC(N)=O)C(=O)N[C@@H](C)C(=O)N[C@@H](CO)C(=O)N[C@H](C(=O)N[C@H](C(=O)N[C@@H](CCC(N)=O)C(=O)N[C@H](C(=O)N[C@@H](CCC(N)=O)C(=O)N[C@@H](CCCCN)C(=O)N[C@@H](CCC(=O)O)C(=O)N[C@H](C(=O)N[C@@H](CC(=O)O)C(=O)N[C@@H](CCCNC(=N)N)C(=O)N[C@@H](CC(C)C)C(=O)N[C@@H](CC(N)=O)C(=O)N[C@@H](CCC(=O)O)C(=O)N[C@H](C(=O)N[C@@H](C)C(=O)N[C@@H](CCCCN)C(=O)N[C@@H](CC(N)=O)C(=O)N[C@@H](CC(C)C)C(=O)N[C@@H](Cc1c[nH]cn1)C(=O)N[C@@H](CCC(=O)O)C(=O)N[C@@H](CO)C(=O)N[C@@H](CC(C)C)C(=O)N[C@H](C(=O)N[C@@H](Cc1ccc(O)cc1)C(=O)N[C@@H](CC(C)C)C(=O)N[C@@H](CCC(N)=O)C(=O)N[C@@H](CCC(=O)O)C(=O)O)[C@@H](C)CC)C(C)C)[C@@H](C)CC)[C@@H](C)CC)C(C)C)C(C)C` [#121]: the IC50 in test [1] was 160 nM; in test [2] (setting [5]), below 1000 nM; in test [3] it was 720 nM; in test [4] (setting [5]), above 10 µM. Also, the “inhibition of TMPRSS2-dependent pseudovirus infection through plasma membrane” value in test [2] is “strong inhibition”. In addition, in the test on SARS-CoV-2, the “reduction in SARS-CoV-2 plaques formation” value was “approximately 15%”. Besides, the “inhibition against the infection through the endocytosis pathway in VeroE6 cells” value in test [4] is on record as at most 38%.
Take `CC[C@H](C)[C@H](NC(=O)CNC(=O)[C@H](CCCNC(=N)N)NC(=O)[C@@H](NC(=O)[C@H](CCC(N)=O)NC(=O)[C@H](CCCNC(=N)N)NC(=O)[C@H](CC(C)C)NC(=O)[C@H](CCCNC(=N)N)NC(=O)[C@@H](N)Cc1c[nH]cn1)[C@@H](C)CC)C(=O)N[C@@H](CCCNC(=N)N)C(=O)N[C@@H](C)C(=O)N[C@@H](CCCNC(=N)N)C(=O)N[C@H](C(=O)N[C@H](C(=O)N[C@@H](CCC(N)=O)C(=O)N[C@H](C(=O)N[C@@H](CCC(N)=O)C(=O)N[C@@H](CCCCN)C(=O)N[C@@H](CCC(=O)O)C(=O)N[C@H](C(=O)N[C@@H](Cc1c[nH]c2ccccc12)C(=O)N[C@@H](CCCNC(=N)N)C(=O)N[C@@H](CC(C)C)C(=O)N[C@@H](CC(N)=O)C(=O)N[C@@H](CCC(=O)O)C(=O)N[C@H](C(=O)N[C@@H](C)C(=O)N[C@@H](CCCCN)C(=O)N[C@@H](CC(C)C)C(=O)N[C@@H](CC(C)C)C(=O)N[C@@H](CC(N)=O)C(=O)N[C@@H](CCC(=O)O)C(=O)N[C@@H](CO)C(=O)N[C@@H](CC(C)C)C(=O)N[C@H](C(=O)N[C@@H](Cc1ccc(O)cc1)C(=O)N[C@@H](CC(C)C)C(=O)N[C@@H](CCC(N)=O)C(=O)N[C@@H](CCC(=O)O)C(=O)O)[C@@H](C)CC)C(C)C)[C@@H](C)CC)[C@@H](C)CC)C(C)C)C(C)C` [#125] (H-HRLRQIRGIRARVVQIQKEIWRLNEVAKLLNESLIYLQE-OH): in the test on SARS-CoV-2, the IC50 is 460 nM and the “reduction in SARS-CoV-2 plaques formation” value amounted to 75%. The compound also gave an IC50 in test [3] of 4400 nM.
